Where two headings read alike, the source gives them in different places.
What was measured:
[1] = tested on: central and peripheral nerve tissues; conditions: colistin 15 mg/kg/day for 7 days in mice; cited from earlier work
mouse N2a neuronal cells = conditions: cited from earlier work
[2] = tested on: rat model of acute renal injury (colistin-induced); experiment: Colistin-induced acute renal injury in rats: serum creatinine and urea; type: in vivo
Protocol: Rats were injected I.P. on the left side of the animals with a 30 mg/kg dose of colistin once a day for eight consecutive days.

[3] = tested on: mouse model of renal injury (colistin-induced); experiment: Colistin-induced acute renal injury, mouse model; type: in vivo; conditions: very low doses of zileuton
[4] = monkeys; estimated from oral studies; from U.S. Pat. No. 5,629,337; cited from earlier work
[5] = dogs; estimated from oral studies; from U.S. Pat. No. 5,629,337; cited from earlier work
[6] = tested on: cisplatin-induced renal damage; conditions: rats; cited from earlier work
[7] = rat serum, day 1 prior to dosing, colistin 30 mg/kg I.P. once a day, zileuton 3 mg/kg I.P., edaravone 15 mg/kg I.P. or atorvastatin 25 mg/kg P.O.
[8] = rat serum, day 4, colistin 30 mg/kg I.P. once a day, zileuton 3 mg/kg I.P., edaravone 15 mg/kg I.P. or atorvastatin 25 mg/kg P.O.
[9] = rat serum, day 8, colistin 30 mg/kg I.P. once a day, zileuton 3 mg/kg I.P., edaravone 15 mg/kg I.P. or atorvastatin 25 mg/kg P.O.

colistin
Mitochondrial dysfunction in nerve tissues [1]: induced mitochondrial dysfunction in central and peripheral nerve tissues
Apoptosis of neuronal cells (mouse N2a neuronal cells; 200 μM colistin for 24 h): become apoptotic

CC(C)c1c(C(=O)Nc2ccccc2)c(-c2ccccc2)c(-c2ccc(F)cc2)n1CC[C@@H](O)C[C@@H](O)CC(=O)O [atorvastatin]
Effect on colistin-induced elevation of creatinine and urea levels ([2]; colistin 3 mg/kg/diem over eight days, rats): blocks the elevation of creatinine and urea levels

CC(c1cc2ccccc2s1)N(O)C(N)=O (racemic) [zileuton, (±) 1-[1-(1-benzothiophen-2-yl)ethyl]-1-hydroxyurea]
Inhibition of colistin-induced acute renal injury ([2]; very low doses of zileuton, rat model): potent inhibition
Effect on colistin-induced elevation of creatinine and urea levels ([2]; zileuton I.P. around 3 mg/kg, colistin 30 mg kg, rat): blocks the elevation of creatinine and urea levels
Inhibition of colistin-induced acute renal injury [3]: potent inhibition
elimination half-life [4]: 0.333 h
elimination half-life [5]: 7 h
Protection against cisplatin-induced renal damage [6]: protect rats against cisplatin-induced renal damage

CCN(CC)CCCC(C)Nc1ccnc2cc(Cl)ccc12 (centres unmarked) [chloroquine]
Effect on colistin-induced apoptosis (mouse N2a neuronal cells; inhibition of autophagy by chloroquine): enhances colistin-induced apoptosis

Colistin Sulfate
Mean Creatinine Day 1 [2, 7]: 0.44 mg/dL
Mean Urea Day 1 [2, 7]: 37 mg/dL
Mean Creatinine Day 4 [2, 8]: 0.71 mg/dL
Mean Urea Day 4 [2, 8]: 69 mg/dL
Mean Creatinine Day 8 [2, 9]: 0.96 mg/dL
Mean Urea Day 8 [2, 9]: 85 mg/dL

CC1=NN(c2ccccc2)C(=O)C1 [edaravone, 5-methyl-2-phenyl-4H-pyrazol-3-one]
Protection against cisplatin-induced renal damage [6]: protect rats against cisplatin-induced renal damage

Source: US20210369669A1, “AUTOPHAGY ACTIVATORS AND INHIBITORS OF FERROPTOSIS FOR PREVENTING ACUTE RENAL FAILURE AND NEUROTOXCITY INDUCED BY CERTAIN ANTIBIOTICS” (SystaMedic Inc., priority 2018, published 2021)
